34 compounds from patent publication US8940724B2, “Quinoline derivitives and their uses” (Amgen Inc., priority 2009, dated 2015) can be followed below.

Molecules are shown by their SMILES.

T1 sequence (O00329 whole entry): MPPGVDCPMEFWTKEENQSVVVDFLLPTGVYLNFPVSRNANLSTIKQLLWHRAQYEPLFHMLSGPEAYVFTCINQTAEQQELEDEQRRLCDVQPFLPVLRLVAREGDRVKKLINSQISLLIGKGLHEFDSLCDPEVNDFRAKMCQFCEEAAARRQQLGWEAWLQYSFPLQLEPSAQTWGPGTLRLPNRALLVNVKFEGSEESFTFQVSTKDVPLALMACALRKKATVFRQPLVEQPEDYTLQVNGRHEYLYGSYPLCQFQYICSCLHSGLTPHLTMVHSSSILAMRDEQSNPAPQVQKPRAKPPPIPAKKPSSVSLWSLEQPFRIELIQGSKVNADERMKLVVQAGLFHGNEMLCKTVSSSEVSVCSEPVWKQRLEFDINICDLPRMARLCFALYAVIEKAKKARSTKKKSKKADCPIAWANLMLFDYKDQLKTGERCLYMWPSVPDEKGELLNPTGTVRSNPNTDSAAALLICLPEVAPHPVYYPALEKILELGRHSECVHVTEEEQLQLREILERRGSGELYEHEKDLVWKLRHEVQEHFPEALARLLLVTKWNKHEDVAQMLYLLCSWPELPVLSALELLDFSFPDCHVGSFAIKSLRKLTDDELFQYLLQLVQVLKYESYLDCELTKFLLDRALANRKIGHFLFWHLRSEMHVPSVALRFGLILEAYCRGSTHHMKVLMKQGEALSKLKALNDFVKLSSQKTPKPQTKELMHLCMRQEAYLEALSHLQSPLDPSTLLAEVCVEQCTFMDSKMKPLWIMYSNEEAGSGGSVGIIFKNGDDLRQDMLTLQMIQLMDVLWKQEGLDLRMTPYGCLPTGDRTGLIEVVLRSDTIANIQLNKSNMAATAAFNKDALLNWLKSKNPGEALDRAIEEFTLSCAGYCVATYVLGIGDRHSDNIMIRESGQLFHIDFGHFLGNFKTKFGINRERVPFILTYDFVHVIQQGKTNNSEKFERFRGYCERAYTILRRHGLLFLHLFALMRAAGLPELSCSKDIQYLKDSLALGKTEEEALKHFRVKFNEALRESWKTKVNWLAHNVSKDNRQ
T1 sequence (P27986 whole entry partner): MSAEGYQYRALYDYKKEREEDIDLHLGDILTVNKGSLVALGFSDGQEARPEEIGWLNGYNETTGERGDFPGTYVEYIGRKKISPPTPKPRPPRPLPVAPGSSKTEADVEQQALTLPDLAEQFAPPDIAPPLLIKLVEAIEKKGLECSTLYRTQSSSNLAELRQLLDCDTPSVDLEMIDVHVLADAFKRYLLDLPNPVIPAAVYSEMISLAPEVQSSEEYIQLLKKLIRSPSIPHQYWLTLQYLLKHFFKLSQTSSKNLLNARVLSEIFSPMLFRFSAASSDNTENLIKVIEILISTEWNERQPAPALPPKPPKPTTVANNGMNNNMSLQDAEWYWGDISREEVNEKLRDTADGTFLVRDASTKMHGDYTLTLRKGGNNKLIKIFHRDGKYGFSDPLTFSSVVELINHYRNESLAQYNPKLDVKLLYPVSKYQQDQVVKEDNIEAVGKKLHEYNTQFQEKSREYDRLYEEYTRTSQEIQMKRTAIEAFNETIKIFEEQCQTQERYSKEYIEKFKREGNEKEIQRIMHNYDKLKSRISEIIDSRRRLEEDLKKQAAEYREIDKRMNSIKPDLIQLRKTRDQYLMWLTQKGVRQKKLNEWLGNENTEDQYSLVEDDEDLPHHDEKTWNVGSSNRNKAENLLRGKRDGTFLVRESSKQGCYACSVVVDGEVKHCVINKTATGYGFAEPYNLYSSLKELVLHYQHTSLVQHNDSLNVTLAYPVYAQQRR

This assay addresses T1, PI3Kδ (Homo sapiens, UniProt O00329).
T1 construct: Full length p110 subunits of PI3k α, β and δ, N-terminally labeled with polyHis tag; polyHis (N); made in house; host or cells: Sf9 insect cells (baculovirus)
Put plainly: PI3Kδ Alphascreen assay. The format is biochemical.
For the compound `Cc1c(N2CCN(CC(C)(C)C)CC2)nc2cc(F)cc(F)c2c1Nc1cncc(N2CCOCC2)c1` [2-(4-(2,2-dimethylpropyl)-1-piperazinyl)-5,7-difluoro-3-methyl-N-(5-(4-morpholinyl)-3-pyridinyl)-4-quinolinamine], the affinity, expressed as Ki, was 98.8 nM.
Under `Cc1c(-c2ccc(N3CCNCC3)nc2)nc2cc(F)cc(F)c2c1Nc1cncc(N2CCOCC2)c1` [5,7-difluoro-3-methyl-N-(5-(4-morpholinyl)-3-pyridinyl)-2-(6-(1-piperazinyl)-3-pyridinyl)-4-quinolinamine] stands 432 nM; under `Cc1c(-c2ccccc2[S@+](C)[O-])nc2cc(F)cc(F)c2c1Nc1cncc(N2CCOCC2)c1` [5,7-difluoro-3-methyl-2-(2-((S)-methylsulfinyl)phenyl)-N-(5-(4-morpholinyl)-3-pyridinyl)-4-quinolinamine], 3.89 nM; under `Cc1c(N2CCN(C(=O)c3ncc[nH]3)CC2)nc2cc(F)cc(F)c2c1Nc1cncc(N2CCOCC2)c1` [5,7-difluoro-2-(4-(1H-imidazol-2-ylcarbonyl)-1-piperazinyl)-3-methyl-N-(5-(4-morpholinyl)-3-pyridinyl)-4-quinolinamine], 54.4 nM.
Under `Cc1c(-c2ccccn2)nc2c(Cl)ccc(F)c2c1Nc1cc(N2CCOCC2)cnc1N1CCOCC1` [8-chloro-N-(2,5-di-4-morpholinyl-3-pyridinyl)-5-fluoro-3-methyl-2-(2-pyridinyl)-4-quinolinamine] stands 2.57 nM.
The figure for `Cc1c(NCC(=O)O)nc2cc(F)cc(F)c2c1Nc1cncc(N2CCOCC2)c1` [N-(5,7-difluoro-3-methyl-4-((5-(4-morpholinyl)-3-pyridinyl)-amino)-2-quinolinyl)glycine] is 131 nM; for `COc1ccc(-c2nc3cc(F)cc(F)c3c(Nc3cc(N4CCOCC4)cnc3N3CCOCC3)c2C)cn1` [N-(2,5-di-4-morpholinyl-3-pyridinyl)-5,7-difluoro-2-(6-methoxy-3-pyridinyl)-3-methyl-4-quinolinamine] it is 33.2 nM; for `Cc1c(-c2ccc(N3CCCCC3)nc2)nc2cc(F)cc(F)c2c1Nc1cncc(N2CCOCC2)c1` [5,7-difluoro-3-methyl-N-(5-(4-morpholinyl)-3-pyridinyl)-2-(6-(1-piperidinyl)-3-pyridinyl)-4-quinolinamine] it is 517 nM.
`Cc1c(-c2ccc(N3CCCCC3)nc2)nc2cc(F)cc(F)c2c1Nc1cc(N2CCOCC2)cnc1N1CCOCC1` [N-(2,5-di-4-morpholinyl-3-pyridinyl)-5,7-difluoro-3-methyl-2-(6-(1-piperidinyl)-3-pyridinyl)-4-quinolinamine] returned a Ki of 44 nM.
Under `Cc1c(N2CCN(CC(F)(F)F)CC2)nc2cc(F)cc(F)c2c1Nc1cncc(N2CCOCC2)c1` [5,7-difluoro-3-methyl-N-(5-(4-morpholinyl)-3-pyridinyl)-2-(4-(2,2,2-trifluoroethyl)-1-piperazinyl)-4-quinolinamine] stands 40.7 nM; under `Cc1c(N2CCNC[C@@H]2C)nc2cc(F)cc(F)c2c1Nc1cncc(N2CCOCC2)c1` [5,7-difluoro-3-methyl-2-((2S)-2-methyl-1-piperazinyl)-N-(5-(4-morpholinyl)-3-pyridinyl)-4-quinolinamine], 78.1 nM.
As for `Cc1c(-c2ccnc(N3CCN(C)CC3)c2)nc2cc(F)cc(F)c2c1Nc1cc(N2CCOCC2)cnc1N1CCOCC1` [N-(2,5-di-4-morpholinyl-3-pyridinyl)-5,7-difluoro-3-methyl-2-(2-(4-methyl-1-piperazinyl)-4-pyridinyl)-4-quinolinamine], the inhibitory constant (Ki) worked out at 15 nM.
The figure for `Cc1ccc(-c2nc3cc(F)cc(F)c3c(Nc3cncc(N4CCOCC4)c3)c2C)nc1` [5,7-difluoro-3-methyl-2-(5-methyl-2-pyridinyl)-N-(5-(4-morpholinyl)-3-pyridinyl)-4-quinolinamine] is 19.1 nM; for `Cc1ccc(-c2nc3cc(F)cc(F)c3c(Nc3cncc(N4CCOCC4)c3)c2C)cn1` [5,7-difluoro-3-methyl-2-(6-methyl-3-pyridinyl)-N-(5-(4-morpholinyl)-3-pyridinyl)-4-quinolinamine] it is 19.1 nM; for `Cc1c(N2CCNCC2)nc2cc(F)cc(F)c2c1Nc1cncc(N2CCOCC2)c1` [5,7-difluoro-3-methyl-N-(5-(4-morpholinyl)-3-pyridinyl)-2-(1-piperazinyl)-4-quinolinamine] it is 87.1 nM.
The figure for `C=Cc1ccnc(-c2nc3cc(F)cc(F)c3c(Nc3cc(N4CCOCC4)cnc3N3CCOCC3)c2C)c1` [N-(2,5-di-4-morpholinyl-3-pyridinyl)-2-(4-ethenyl-2-pyridinyl)-5,7-difluoro-3-methyl-4-quinolinamine] is 119 nM.
Under `COc1cc(-c2ncc(N3CCOCC3)cc2Nc2c(C)c(-c3ccccn3)nc3cc(F)cc(F)c23)c(F)cn1` [N-(5,7-difluoro-3-methyl-2-(2-pyridinyl)-4-quinolinyl)-5′-fluoro-2′-methoxy-5-(4-morpholinyl)-2,4′-bipyridin-3-amine] stands 23.5 nM; under `Cc1c(-c2ccccc2F)nc2cc(F)cc(F)c2c1Nc1cc(N2CCOCC2)cnc1N1CCOCC1` [N-(2,5-di-4-morpholinyl-3-pyridinyl)-5,7-difluoro-2-(2-fluorophenyl)-3-methyl-4-quinolinamine], 6.22 nM; under `Cc1c(N2CCC[C@@H]2C(=O)OC(C)(C)C)nc2cc(F)cc(F)c2c1Nc1cncc(N2CCOCC2)c1` [tert-butyl 1-(5,7-difluoro-3-methyl-4-((5-(4-morpholinyl)-3-pyridinyl)amino)-2-quinolinyl)-D-prolinate], 18 nM.
Compound `Cc1c(-c2cc(-c3ccccc3)ccn2)nc2cc(F)cc(F)c2c1Nc1cc(N2CCOCC2)cnc1N1CCOCC1` [N-(2,5-di-4-morpholinyl-3-pyridinyl)-5,7-difluoro-3-methyl-2-(4-phenyl-2-pyridinyl)-4-quinolinamine] gave a Ki of 47.9 nM. This Ki lies about 2.7-fold higher than the previous one.
Consider `Cc1ccnc(-c2nc3c(C#N)cccc3c(Nc3cncc(N4CCOCC4)c3)c2C)c1` [3-methyl-2-(4-methyl-2-pyridinyl)-4-((5-(4-morpholinyl)-3-pyridinyl)amino)-8-quinolinecarbonitrile], for which the Ki came to 57.3 nM.
As to `Cc1ccc(-c2nc3cc(F)cc(F)c3c(Nc3cc(N4CCOCC4)cnc3N3CCOCC3)c2C)c(C)c1` [2-(2,4-dimethylphenyl)-N-(2,5-di-4-morpholinyl-3-pyridinyl)-5,7-difluoro-3-methyl-4-quinolinamine], affinity was put at a Ki of 26.8 nM.
On to `Cc1ccc(S(C)(=O)=O)c(-c2nc3cc(F)cc(F)c3c(Nc3cc(N4CCOCC4)cnc3N3CCOCC3)c2C)c1` [N-(2,5-di-4-morpholinyl-3-pyridinyl)-5,7-difluoro-3-methyl-2-(5-methyl-2-(methylsulfonyl)phenyl)-4-quinolinamine], for which the affinity corresponds to a Ki of 8.22 nM.
Regarding `Cc1c(-c2ccccn2)nc2cnccc2c1Nc1cc(N2CCOCC2)ccc1N1CCOCC1` [N-(2,5-di-4-morpholinylphenyl)-3-methyl-2-(2-pyridinyl)-1,7-naphthyridin-4-amine], the affinity, expressed as Ki, was 876 nM. This Ki lies about 110-fold higher than the previous one.
The figure for `Cc1c(-c2cccc3c2ccn3C)nc2cc(F)cc(F)c2c1Nc1cc(N2CCOCC2)cnc1N1CCOCC1` [N-(2,5-di-4-morpholinyl-3-pyridinyl)-5,7-difluoro-3-methyl-2-(1-methyl-1H-indol-4-yl)-4-quinolinamine] is 16.1 nM; for `Cc1c(-c2cccc3c2cnn3C)nc2cc(F)cc(F)c2c1Nc1cc(N2CCOCC2)cnc1N1CCOCC1` [N-(2,5-di-4-morpholinyl-3-pyridinyl)-5,7-difluoro-3-methyl-2-(1-methyl-1H-indazol-4-yl)-4-quinolinamine] it is 8.6 nM.
On to `Cc1c(-c2ccccn2)nc2c(Cl)c(F)cc(F)c2c1Nc1cc(N2CCOCC2)cnc1N1CCOCC1` [8-chloro-N-(2,5-di-4-morpholinyl-3-pyridinyl)-5,7-difluoro-3-methyl-2-(2-pyridinyl)-4-quinolinamine], for which affinity was put at a Ki of 2.85 nM.
Under `Cc1c(N2CCN(C(=O)C(C)C)CC2)nc2cc(F)cc(F)c2c1Nc1cncc(N2CCOCC2)c1` [5,7-difluoro-3-methyl-2-(4-(2-methylpropanoyl)-1-piperazinyl)-N-(5-(4-morpholinyl)-3-pyridinyl)-4-quinolinamine] stands 33.3 nM.
`Cc1c(N2CCN(C(=O)OC(C)(C)C)CC2)nc2cc(F)cc(F)c2c1Nc1cncc(N2CCOCC2)c1` [tert-butyl 4-(5,7-difluoro-3-methyl-4-((5-(4-morpholinyl)-3-pyridinyl)amino)-2-quinolinyl)-1-piperazinecarboxylate] had a Ki of 353 nM. Compared with the last compound, the Ki is about 11-fold higher.
Regarding `Cc1c(-c2cc([C@@H](C)O)ccc2S(C)(=O)=O)nc2cc(F)cc(F)c2c1Nc1cncc(N2CCOCC2)c1` [(1R)-1-(3-(5,7-difluoro-3-methyl-4-((5-(4-morpholinyl)-3-pyridinyl)amino)-2-quinolinyl)-4-(methylsulfonyl)phenyl)-ethanol], the Ki stood at 1.57 nM.
Compound `Cc1c(-c2ccccn2)nc2c(F)cc(F)cc2c1Nc1cc(N2CCOCC2)cnc1N1CCOCC1` [N-(2,5-di-4-morpholinyl-3-pyridinyl)-6,8-difluoro-3-methyl-2-(2-pyridinyl)-4-quinolinamine] showed an inhibitory constant (Ki) of 345 nM.
As to `Cc1c(-c2ccccn2)nc2cc(F)cc(F)c2c1Nc1cc(N2CCOCC2)cnc1-c1cccc(OC(F)F)c1` [N-(2-(3-(difluoromethoxy)phenyl)-5-(4-morpholinyl)-3-pyridinyl)-5,7-difluoro-3-methyl-2-(2-pyridinyl)-4-quinolinamine], the inhibition constant Ki amounted to 2.26 nM.
The compound `COC(=O)N1CCN(c2nc3cc(F)cc(F)c3c(Nc3cncc(N4CCOCC4)c3)c2C)C[C@@H]1C` [methyl (2S)-4-(5,7-difluoro-3-methyl-4-((5-(4-morpholinyl)-3-pyridinyl)amino)-2-quinolinyl)-2-methyl-1-piperazinecarboxylate] returned a Ki of 15 nM.
Under `CCOc1ccc(-c2nc3cc(F)cc(F)c3c(Nc3cc(N4CCOCC4)cnc3N3CCOCC3)c2C)cn1` [N-(2,5-di-4-morpholinyl-3-pyridinyl)-2-(6-ethoxy-3-pyridinyl)-5,7-difluoro-3-methyl-4-quinolinamine] stands 25.5 nM.
